What was measured:
Thromboxane-A synthase = target: T1, Thromboxane-A synthase (Homo sapiens, UniProt P24557); experiment: biochemical; type: tissue-based, Platelet; details: platelet;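 note: enzyme inhibition assay with PGH2 supplied as substrate; in other assays of this panel Not Active means under 50% inhibition at 10 µM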
T1 sequence (P24557 whole entry): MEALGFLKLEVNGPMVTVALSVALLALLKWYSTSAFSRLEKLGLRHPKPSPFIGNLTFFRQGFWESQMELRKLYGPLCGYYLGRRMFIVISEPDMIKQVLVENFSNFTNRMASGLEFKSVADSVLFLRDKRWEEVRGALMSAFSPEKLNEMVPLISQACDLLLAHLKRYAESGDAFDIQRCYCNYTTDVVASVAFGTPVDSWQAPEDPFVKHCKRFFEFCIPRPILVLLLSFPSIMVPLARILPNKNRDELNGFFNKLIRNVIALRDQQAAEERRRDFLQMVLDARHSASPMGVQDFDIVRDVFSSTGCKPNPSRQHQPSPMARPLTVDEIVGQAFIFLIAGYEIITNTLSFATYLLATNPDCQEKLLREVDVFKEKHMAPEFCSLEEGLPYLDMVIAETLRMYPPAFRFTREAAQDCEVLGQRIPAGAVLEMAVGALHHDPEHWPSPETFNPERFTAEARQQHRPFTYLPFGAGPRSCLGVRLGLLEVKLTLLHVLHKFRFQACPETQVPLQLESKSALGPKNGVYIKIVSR

[1] = target: T2, Type-2 angiotensin II receptor (Homo sapiens, UniProt P50052); type: cell-based; details: cho-k1; note: in other assays of this panel Not Active means under 50% inhibition at 10 µM
T2 sequence (P50052 whole entry): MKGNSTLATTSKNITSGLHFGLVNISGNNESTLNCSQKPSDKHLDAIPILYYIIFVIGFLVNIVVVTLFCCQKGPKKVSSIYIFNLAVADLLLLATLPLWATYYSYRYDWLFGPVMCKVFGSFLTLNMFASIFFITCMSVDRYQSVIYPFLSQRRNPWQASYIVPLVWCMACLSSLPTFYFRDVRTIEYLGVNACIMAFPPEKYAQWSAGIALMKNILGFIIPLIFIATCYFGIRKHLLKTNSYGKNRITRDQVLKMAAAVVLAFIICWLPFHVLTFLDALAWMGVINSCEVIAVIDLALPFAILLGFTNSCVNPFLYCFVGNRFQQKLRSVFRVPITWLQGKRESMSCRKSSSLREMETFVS

Calcitonin receptor = target: T3, Calcitonin receptor (Homo sapiens, UniProt P30988); type: cell membranes, Membrane; details: t47d; note: in other assays of this panel Not Active means under 50% inhibition at 10 µM
T3 sequence (P30988 whole entry): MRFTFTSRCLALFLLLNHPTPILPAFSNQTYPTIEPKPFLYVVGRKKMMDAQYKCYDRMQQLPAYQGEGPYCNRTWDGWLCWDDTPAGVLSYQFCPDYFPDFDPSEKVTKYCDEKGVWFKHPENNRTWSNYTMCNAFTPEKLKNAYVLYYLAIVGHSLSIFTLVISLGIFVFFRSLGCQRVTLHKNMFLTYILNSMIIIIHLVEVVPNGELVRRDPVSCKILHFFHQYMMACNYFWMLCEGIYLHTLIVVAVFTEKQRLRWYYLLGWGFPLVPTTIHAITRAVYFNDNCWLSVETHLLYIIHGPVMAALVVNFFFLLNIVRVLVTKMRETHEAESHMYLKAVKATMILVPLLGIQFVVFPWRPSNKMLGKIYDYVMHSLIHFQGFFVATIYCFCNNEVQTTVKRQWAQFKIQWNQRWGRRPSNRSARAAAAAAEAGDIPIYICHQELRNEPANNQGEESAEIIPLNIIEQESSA

[2] = target: Beta-1 adrenergic receptor (Homo sapiens, UniProt P08588); experiment: DRUGMATRIX: Adrenergic beta1 radioligand binding (ligand: [125I] Cyanopindolol); type: cell membranes, CHO-K1, Membrane; details: cho-k1; Not Active = under 50% inhibition at 10 µM
[3] = DRUGMATRIX: Interleukin IL-1 radioligand binding (ligand: [125I] interleukin 1beta); type: cell membranes, Membrane; details: nih3t3; Not Active = under 50% inhibition at 10 µM
[4] = target: T4, 5-hydroxytryptamine receptor 2C (Homo sapiens, UniProt P28335); experiment: DRUGMATRIX: Serotonin (5-Hydroxytryptamine) 5-HT2C radioligand binding (ligand: [3H] Mesulergine); type: cell membranes, CHO-K1, Membrane; details: cho-k1; Not Active = under 50% inhibition at 10 µM
T4 sequence (P28335 whole entry): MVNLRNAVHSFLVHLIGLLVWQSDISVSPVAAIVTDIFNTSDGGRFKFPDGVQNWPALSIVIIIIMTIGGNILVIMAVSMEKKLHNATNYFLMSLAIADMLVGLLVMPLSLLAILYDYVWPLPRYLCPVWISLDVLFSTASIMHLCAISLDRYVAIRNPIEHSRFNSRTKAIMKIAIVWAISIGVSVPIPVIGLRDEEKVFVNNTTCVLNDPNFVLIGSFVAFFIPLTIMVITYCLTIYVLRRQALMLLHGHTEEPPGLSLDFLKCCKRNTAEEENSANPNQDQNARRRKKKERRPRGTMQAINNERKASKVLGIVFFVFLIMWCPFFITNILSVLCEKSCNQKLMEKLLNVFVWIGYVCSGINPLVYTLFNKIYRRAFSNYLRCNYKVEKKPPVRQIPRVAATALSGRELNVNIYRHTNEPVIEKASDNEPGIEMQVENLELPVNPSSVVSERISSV

Cytochrome P450 2C9 = Cytochrome P450 2C9 (Homo sapiens, UniProt P11712); details: bti-tn-5b1-4; note: in other assays of this panel Not Active means under 50% inhibition at 10 µM
[5] = DRUGMATRIX: Phorbol Ester radioligand binding (ligand: [3H] PDBu); type: cell membranes, Mus musculus, ICR, Brain, Membrane; details: Not Active = under 50% inhibition at 10 µM

Sequence of Beta-1 adrenergic receptor (P08588 whole entry): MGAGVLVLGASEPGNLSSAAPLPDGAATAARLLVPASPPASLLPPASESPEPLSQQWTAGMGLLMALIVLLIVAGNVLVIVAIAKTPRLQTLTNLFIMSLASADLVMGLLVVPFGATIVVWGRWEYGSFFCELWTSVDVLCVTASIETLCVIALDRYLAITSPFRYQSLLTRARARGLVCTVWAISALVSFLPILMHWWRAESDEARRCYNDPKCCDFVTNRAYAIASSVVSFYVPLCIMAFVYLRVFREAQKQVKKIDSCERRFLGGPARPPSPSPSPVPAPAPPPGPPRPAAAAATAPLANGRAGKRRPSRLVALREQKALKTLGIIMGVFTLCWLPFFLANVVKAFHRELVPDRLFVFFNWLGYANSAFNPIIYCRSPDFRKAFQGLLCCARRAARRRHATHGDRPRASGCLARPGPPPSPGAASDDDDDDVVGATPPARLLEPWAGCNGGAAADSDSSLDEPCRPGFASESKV
Sequence of Cytochrome P450 2C9 (P11712 whole entry): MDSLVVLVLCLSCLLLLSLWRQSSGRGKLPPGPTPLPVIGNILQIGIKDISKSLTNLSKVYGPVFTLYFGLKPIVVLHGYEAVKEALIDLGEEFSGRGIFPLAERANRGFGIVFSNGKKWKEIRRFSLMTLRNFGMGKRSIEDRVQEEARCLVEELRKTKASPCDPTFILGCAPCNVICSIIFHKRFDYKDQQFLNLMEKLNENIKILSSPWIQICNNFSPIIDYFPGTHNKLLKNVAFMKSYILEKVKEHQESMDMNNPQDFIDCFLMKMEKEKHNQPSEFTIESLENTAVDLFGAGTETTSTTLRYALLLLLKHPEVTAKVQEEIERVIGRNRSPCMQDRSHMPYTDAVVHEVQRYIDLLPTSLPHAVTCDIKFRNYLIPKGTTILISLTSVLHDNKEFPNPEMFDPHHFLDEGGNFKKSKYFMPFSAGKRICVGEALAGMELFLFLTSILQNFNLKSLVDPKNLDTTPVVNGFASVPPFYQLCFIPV

COc1ccccc1OCC(O)COC(N)=O (stereo not drawn) [METHOCARBAMOL]
Not Active: IC50 (Thromboxane-A synthase) | IC50 [1] | IC50 (Calcitonin receptor) | IC50 [2] | IC50 [3] | Ki [3] | IC50 [4] | IC50 (Cytochrome P450 2C9) | Ki (Cytochrome P450 2C9) | IC50 [5] | Ki [5]

COC(=O)c1ccccc1O [METHYL SALICYLATE]
Not Active: IC50 (Thromboxane-A synthase) | IC50 [1] | IC50 (Calcitonin receptor) | IC50 [2] | IC50 [3] | Ki [3] | IC50 [4] | IC50 (Cytochrome P450 2C9) | Ki (Cytochrome P450 2C9) | IC50 [5] | Ki [5]

COc1ccc2cc(CCC(C)=O)ccc2c1 [NABUMETONE]
Not Active: IC50 (Thromboxane-A synthase) | IC50 [1] | IC50 (Calcitonin receptor) | IC50 [2] | IC50 [3] | Ki [3] | IC50 [4] | IC50 (Cytochrome P450 2C9) | Ki (Cytochrome P450 2C9) | IC50 [5] | Ki [5]

CNC(=C[N+](=O)[O-])NCCSCc1csc(CN(C)C)n1 [NIZATIDINE]
Not Active: IC50 (Thromboxane-A synthase) | IC50 [1] | IC50 (Calcitonin receptor) | IC50 [2] | IC50 [3] | Ki [3] | IC50 [4] | IC50 (Cytochrome P450 2C9) | Ki (Cytochrome P450 2C9) | IC50 [5] | Ki [5]

C[C@]12C/C(=C/O)C(=O)C[C@@H]1CC[C@@H]1[C@@H]2CC[C@@]2(C)[C@H]1CC[C@]2(C)O [OXYMETHOLONE]
Not Active: IC50 (Thromboxane-A synthase) | IC50 [1] | IC50 (Calcitonin receptor) | IC50 [2] | IC50 [3] | Ki [3] | IC50 [4] | IC50 (Cytochrome P450 2C9) | Ki (Cytochrome P450 2C9) | IC50 [5] | Ki [5]

CC(C)(CO)C(O)C(=O)NCCCO (stereo not drawn) [PANTHENOL]
Not Active: IC50 (Thromboxane-A synthase) | IC50 [1] | IC50 (Calcitonin receptor) | IC50 [2] | IC50 [3] | Ki [3] | IC50 [4] | IC50 (Cytochrome P450 2C9) | Ki (Cytochrome P450 2C9) | IC50 [5] | Ki [5]

COc1ccc(Cc2nccc3cc(OC)c(OC)cc23)cc1OC [PAPAVERINE]
Not Active: IC50 (Thromboxane-A synthase) | IC50 [1] | IC50 (Calcitonin receptor) | IC50 [2] | IC50 [3] | Ki [3] | IC50 [4] | IC50 (Cytochrome P450 2C9) | Ki (Cytochrome P450 2C9) | IC50 [5] | Ki [5]

CCCCC1C(=O)N(c2ccccc2)N(c2ccccc2)C1=O [PHENYLBUTAZONE]
Not Active: IC50 (Thromboxane-A synthase) | IC50 [1] | IC50 (Calcitonin receptor) | IC50 [2] | IC50 [3] | Ki [3] | IC50 [4] | IC50 (Cytochrome P450 2C9) | Ki (Cytochrome P450 2C9) | IC50 [5] | Ki [5]

Cc1cccc(Nc2cc(Cl)nc(SCC(=O)O)n2)c1C [PIRINIXIC ACID]
Not Active: IC50 (Thromboxane-A synthase) | IC50 [1] | IC50 (Calcitonin receptor) | IC50 [2] | IC50 [3] | Ki [3] | IC50 [4] | IC50 (Cytochrome P450 2C9) | Ki (Cytochrome P450 2C9) | IC50 [5] | Ki [5]

CC[C@H](C)C(=O)O[C@H]1C[C@H](O)C=C2C=C[C@H](C)[C@H](CC[C@@H](O)C[C@@H](O)CC(=O)O)[C@H]21 [PRAVASTATIN]
Not Active: IC50 (Thromboxane-A synthase) | IC50 [1] | IC50 (Calcitonin receptor) | IC50 [2] | IC50 [3] | Ki [3] | IC50 [4] | IC50 (Cytochrome P450 2C9) | Ki (Cytochrome P450 2C9) | IC50 [5] | Ki [5]

CC(C)(Sc1cc(C(C)(C)C)c(O)c(C(C)(C)C)c1)Sc1cc(C(C)(C)C)c(O)c(C(C)(C)C)c1 [PROBUCOL]
Not Active: IC50 (Thromboxane-A synthase) | IC50 [1] | IC50 (Calcitonin receptor) | IC50 [2] | IC50 [3] | Ki [3] | IC50 [4] | IC50 (Cytochrome P450 2C9) | Ki (Cytochrome P450 2C9) | IC50 [5] | Ki [5]

COBALT(II) ACETYLACETONATE
Not Active: IC50 (Thromboxane-A synthase) | Ki (Thromboxane-A synthase) | IC50 [1] | Ki [1] | IC50 (Calcitonin receptor) | Ki (Calcitonin receptor) | IC50 [2] | Ki [2] | IC50 [3] | Ki [3] | IC50 [4] | Ki [4] | IC50 (Cytochrome P450 2C9) | Ki (Cytochrome P450 2C9) | IC50 [5] | Ki [5]

INSULIN HUMAN
Not Active: IC50 (Thromboxane-A synthase) | Ki (Thromboxane-A synthase) | IC50 [1] | Ki [1] | IC50 (Calcitonin receptor) | Ki (Calcitonin receptor) | IC50 [2] | Ki [2] | IC50 [3] | Ki [3] | IC50 [4] | Ki [4] | IC50 (Cytochrome P450 2C9) | Ki (Cytochrome P450 2C9) | IC50 [5] | Ki [5]

From ChEMBL document CHEMBL1909046, “DrugMatrix in vitro pharmacology data”
